Measured values as given in patent US12376614B2, “Method for producing hop processed product” (SUNTORY HOLDINGS LIMITED, priority 2016, dated 2025).

Experiments:
3T3-L1 cells = test: Anti-adipocyte differentiation in 3T3-L1 cells (Oil Red O, WST-8 viability); type: cell-based; details: positive control, commercially available reagent, 50 μM
Description: [formula] formula (1) <Anti-Adipocyte Differentiation> [Reagents] • Dulbecco's modified eagle medium (DMEM): 10% FBS (fetal bovine sera) and 1% penicillin/streptomycin were added thereto. • TrypLE™ Select (1×) • IBMX: prepared to have a concentration of 0.5 mM with DMSO. • DEX: prepared to have a concentration of 1 μM with DMSO. • insulin solution human • WST-8: upon use, diluted with the DMEM medium to give a 2% WST-8. • Oil Red O: prepared to have a concentration of 5 mg/mL with isoPrOH, and upon use, diluted with pure water to give a 60% Oil Red O. [Method] • Day 1: 3T3-L1 Cells were previously cultured in a 10 cm dish to a state of 70 to 80% confluent. […] One-hundred microliters of the medium was transferred to a fresh 96-well plate, and the absorbance at 450 nm was measured with a microplate reader. Using those cells, a cell viability (%) was calculated as a relative value to the control. […] The 96-well plate was dried, 50 μL of 100% isoPrOH was added thereto, a mixture was allowed to stand at room temperature for 10 minutes, and the absorbance at 520 nm was then measured. Using those cells, an adipocyte differentiation (%) was calculated as a relative value to the control.

[1] = Antioxidant activity (DPPH radical scavenging rate); type: biochemical; details: positive control, commercially available reagent, 12.5 μM
Description: Each sample dissolved in DMSO was dissolved in a 50 v/v % EtOH, so as to prepare a sample solution having a concentration of 25, 50, and 100 μg/mL, and dispensed in each well of a 96-well plate in an amount of 100 μL each. Thereto was added 100 μL each of a DPPH solution dissolved in EtOH so as to have a concentration of 0.1 mM, and the mixture was stirred with vortex (final concentration: 12.5, 25, or 50 μg/mL). Next, the plate was made light-resistant with an aluminum foil, and allowed to stand at room temperature (25° C.) for 30 minutes, and the absorbance at 517 nm was then measured (n=3). Using the absorbance obtained, the DPPH radical scavenging rate (%) was calculated according to the following formula (1). Here, as for the blank, the absorbance was measured in the same manner as the sample solutions except that a 50 v/v % EtOH containing 0.2% DMSO was used.
The 3T3-L1 cells were detached with TrypLE™ Select, and diluted with a DMEM medium to a concentration of 1.0×10^5 cells/mL, 100 μL each of a cell suspension was then dispensed into a 96-well plate, and the cells were cultured at 37° C. under 5% CO2. • Day 3: Each sample was prepared using a differentiation and induction medium (0.1% IBMX, 0.01% DEX). […] One-hundred microliters of the medium was transferred to a fresh 96-well plate, and the absorbance at 450 nm was measured with a microplate reader. […]

Row | SMILES | anti-adipocyte differentiation (3T3-L1 cells) | antioxidant activity [1]
1 | O=c1c(O)c(-c2ccc(O)c(O)c2)oc2cc(O)cc(O)c12 [Quercetin] | 50% | –
2 | O=C1O[C@H]([C@@H](O)CO)C(O)=C1O [Vitamin C] | – | 70%
